These results are taken from article PMC10870767, “Extraction, Purification, and Characterization of Olive (Olea europaea L., cv. Chemlal) Polyphenol Oxidase” (Journal of Agricultural and Food Chemistry, 2024).

One experiment relates to OePPO1. As to the kind of experiment: Effect of metal ions on OePPO1 activity. Format: biochemical, Olea europaea L., cv. Chemlal.
The subject of the next experiment is mango PPO. As to conditions: cited from earlier work; for residual activity: 10 mM inhibitor.
The next experiment relates to apricot PPO. As to conditions: cited from earlier work; for residual activity: 10 mM inhibitor.
The next experiment concerns blueberry PPO. More on the design: method as in PMID 27719900. As to conditions: cited from earlier work.
Experiment [1] deals with T1, olive polyphenol oxidase (OePPO) (Olea europaea, UniProt A0A8S0TLT4). As to the kind of experiment: Effect of inhibitors on OePPO activity. Type of experiment: biochemical, Olea europaea L., cv. Chemlal. As to conditions: 10 mM catechol; for IC100: read-out: concentration for complete suppression/inhibition of OePPO activity. On the procedure: (§1) OePPO activity measurements were carried out spectrophotometrically at 25 °C using a 96-well microplate reader (Infinite M200, Tecan). The assay mixture, with a volume of 200 μL, was monitored for the increase in absorbance at 410 nm as the enzyme converted catechol, starting from ∼25 s after mixing (time required for pipetting and initiating the microplate reader) and continuing until the reaction curve reached a plateau phase (after ∼15 min). The standard reaction mixture consisted of 0.5 μg of enzyme and 10 mM catechol in 50 mM sodium phosphate buffer (pH 7.5) along with the optimal concentration of SDS (5 mM) as determined. […] OePPO activity was assessed by calculating the slope of the initial linear segment of the experimental curves, where the absorbance was plotted against time. The activity was expressed in U/mg, with one unit of enzymatic activity (U) defined as the amount of enzyme that catalyzed the formation of 1 μmol of quinones per minute (1 U = 1 μmol/min). All experiments were conducted in triplicate, and the protein concentrations in the enzyme solutions were determined using the Bradford method[15] with bovine serum albumin as a standard.
T1 sequence (A0A8S0TLT4 entry or part of it): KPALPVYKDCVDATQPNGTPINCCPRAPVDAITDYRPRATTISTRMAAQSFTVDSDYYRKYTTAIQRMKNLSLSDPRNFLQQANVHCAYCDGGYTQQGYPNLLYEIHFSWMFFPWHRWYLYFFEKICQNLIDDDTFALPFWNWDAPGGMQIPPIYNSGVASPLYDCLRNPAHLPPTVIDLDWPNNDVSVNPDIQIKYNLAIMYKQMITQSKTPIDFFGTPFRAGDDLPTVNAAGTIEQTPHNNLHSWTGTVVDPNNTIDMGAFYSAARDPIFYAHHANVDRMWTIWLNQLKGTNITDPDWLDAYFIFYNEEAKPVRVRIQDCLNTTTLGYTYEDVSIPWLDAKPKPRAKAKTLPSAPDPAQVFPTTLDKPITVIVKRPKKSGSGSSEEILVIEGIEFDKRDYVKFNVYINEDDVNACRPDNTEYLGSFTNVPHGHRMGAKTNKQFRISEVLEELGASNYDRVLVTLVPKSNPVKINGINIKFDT
The optimum concentration range for each inhibitor was established through preliminary experiments (data not shown). OePPO activity was measured using the same assay conditions previously described, and the results were expressed as the percentage of residual activity relative to the control mixture (100%) without inhibitors. The half inhibitory concentration (IC50) was determined for each inhibitor using nonlinear regression.

Experiment [2] deals with T1, olive polyphenol oxidase (OePPO). The experiment can be described thus: Effect of SDS on OePPO activity (activation of latent enzyme). Type of experiment: biochemical, Olea europaea L., cv. Chemlal. Here is the method:
as §1
The effect of different concentrations of SDS (0–100 mM) on OePPO activity was investigated.

The subject of another experiment is banana PPO. Set-up: method as in doi:10.1021/jf980473d. As to conditions: cited from earlier work.
For experiment [3], the target named is T1, olive polyphenol oxidase (OePPO). The experiment can be described thus: Enzyme kinetics and substrate specificity of purified OePPO. Type of experiment: biochemical, Olea europaea L., cv. Chemlal. As to conditions: for kcat: substrate of purified OePPO, 50 mM sodium phosphate buffer pH 7.5, 5 mM SDS, 25 °C. On the procedure:
as §1

Setting [4] is: 1 mM metal salt, 50 mM sodium citrate buffer, 5 mM SDS, control without metal ions = 100%.
The mark [5] stands for this setting: 5 mM metal salt, 50 mM sodium citrate buffer, 5 mM SDS, control without metal ions = 100%.
Setting [6] is: 10 mM metal salt, 50 mM sodium citrate buffer, 5 mM SDS, control without metal ions = 100%.
Setting [7] is: 100 mM metal salt, 50 mM sodium citrate buffer, 5 mM SDS, control without metal ions = 100%.

Values joined by “and” are separate entries in the source; they are usually repeats but may differ in a detail not shown here. Equal entries are not always repeated. Where two headings read alike, the source gives them in different places.

With `[Cl][Al]([Cl])[Cl]` [AlCl3], the relative activity in the experiment on OePPO1 (setting [4]) was found to be 98 ± 1.9%; in the experiment on OePPO1 (setting [5]) it was 90 ± 1.2%; in the experiment with OePPO1 (setting [6]), 82 ± 2.7%; in the experiment on OePPO1 (setting [7]) it was 0.0 ± 0.00%.

Regarding `[Ca+2].[Cl-].[Cl-]` [CaCl2], the relative activity in the experiment with OePPO1 (setting [4]) was found to be 103 ± 2.0%; with OePPO1 (setting [5]), 96 ± 2.8%; in the experiment with OePPO1 (setting [6]), 93 ± 2.9%; in the experiment with OePPO1 (setting [7]) it was 66 ± 4.1%.

Regarding `[Cl][Cr]([Cl])[Cl]` [CrCl3], the relative activity in the experiment on OePPO1 (setting [4]) was 80 ± 2.8%; in the experiment on OePPO1 (1 mM metal salt, 50 mM sodium citrate buffer, 5 mM SDS, control without metal ions = 100%, listed as Cr^3+), 80%; in the experiment on OePPO1 (setting [5]) it was 63 ± 1.6%; in the experiment with OePPO1 (setting [6]), 0.0 ± 0.00%; in the experiment with OePPO1 (10 mM metal salt, 50 mM sodium citrate buffer, 5 mM SDS, control without metal ions = 100%, listed as Cr^3+), “complete suppression”; in the experiment on OePPO1 (setting [7]), 0.0 ± 0.00%.

For the molecule `O=S(=O)([O-])[O-].[Cu+2]` [CuSO4], the relative activity in the experiment with OePPO1 (setting [4]) was 106 ± 4.3%; in the experiment on OePPO1 (setting [5]), 112 ± 1.9%; in the experiment on OePPO1 (5 mM metal salt, 50 mM sodium citrate buffer, 5 mM SDS, control without metal ions = 100%, listed as Cu^2+) it was 112%; in the experiment on OePPO1 (setting [6]), 110 ± 3.9%; in the experiment with OePPO1 (setting [7]), 37 ± 2.6%; with OePPO1 (100 mM metal salt, 50 mM sodium citrate buffer, 5 mM SDS, control without metal ions = 100%, listed as Cu^2+), “drastically reduced”.

Turning to `[Cl][Fe][Cl]` [FeCl2], the relative activity with OePPO1 (setting [4]) amounted to 87 ± 2.3%; in the experiment on OePPO1 (1 mM metal salt, 50 mM sodium citrate buffer, 5 mM SDS, control without metal ions = 100%, listed as Fe^2+) it was 87%; with OePPO1 (setting [5]) it was 74 ± 1.7%; in the experiment on OePPO1 (setting [6]), 56 ± 2.0%; with OePPO1 (setting [7]) it was 22 ± 6.6%.

`[Cl-].[K+]` [KCl]: the relative activity is reported as 98 ± 3.8% with OePPO1 (setting [4]), 98 ± 1.4% with OePPO1 (setting [5]), 96 ± 2.1% in the experiment with OePPO1 (setting [6]) and 64 ± 2.8% in the experiment on OePPO1 (setting [7]).

Turning to `O=c1cc(CO)occ1O` [Kojic acid, kojic acid], the “inhibition of enzymatic browning” value with mango PPO (10 mM) is on record as “effectively inhibiting enzymatic browning”.

For the molecule `N[C@@H](CS)C(=O)O` [L-cysteine], the “concentration with complete inhibitory effect” value with apricot PPO, in the experiment with blueberry PPO and in the experiment with mango PPO was “around 1 mM” each time.

Turning to `[Cl-].[Cl-].[Mg+2]` [MgCl2], the relative activity in the experiment with OePPO1 (setting [4]) is given as 100 ± 2.7%; in the experiment on OePPO1 (setting [5]), 97 ± 1.4%; in the experiment with OePPO1 (setting [6]), 95 ± 1.8%; with OePPO1 (setting [7]), 72 ± 3.4%.

`[Cl][Mn][Cl]` [MnCl2]: the relative activity in the experiment on OePPO1 (setting [4]) came to 99 ± 2.1%; in the experiment on OePPO1 (setting [5]) it was 92.1 ± 0.84%; in the experiment with OePPO1 (setting [6]), 60 ± 3.2%; with OePPO1 (setting [7]), 0.0 ± 0.00%.

`NC(=S)Nc1ccccc1` [N-phenylthiourea]: in experiment [1] (pH 7.5, 5 mM SDS), the “concentration that completely inhibited enzymatic activity” value turned out to be 50 µM.

For `[Cl-].[Na+]` [NaCl], the relative activity in the experiment with OePPO1 was 101 ± 3.1% and 99 ± 2.3% and 103 ± 2.8% and 88 ± 5.4%.

In the case of `O=S(=O)([O-])[O-].[Ni+2]` [NiSO4], the relative activity in the experiment on OePPO1 (setting [4]) is 103 ± 2.3%; in the experiment with OePPO1 (setting [5]), 101.3 ± 0.57%; in the experiment on OePPO1 (setting [6]), 92 ± 1.7%; in the experiment on OePPO1 (setting [7]), 88 ± 4.3%.

On to `CCCCCCCCCCCCOS(=O)(=O)[O-].[Na+]` [SDS, sodium lauryl sulfate], for which the “SDS concentration for full activation of latent PPO” value in the experiment on apricot PPO and in the experiment on banana PPO was 2 mM each time. Further, in experiment [2] (5 mM SDS, phosphate buffer pH 7.5), the “increase of OePPO activity versus absence of SDS” value was around 10 fold. Further, in experiment [2] (100 mM SDS, phosphate buffer pH 7.5), the “OePPO activity compared to the absence of SDS” value is reported as “three times the activity”. The “optimal SDS concentration for full activation of latent OePPO” value in experiment [2] (phosphate buffer pH 7.5, catechol) amounted to 5 mM. Further, the “SDS concentration necessary to achieve full activity” value with mango PPO is 6.93 mM.

As for `[Cl-].[Cl-].[Zn+2]` [ZnCl2], the relative activity in the experiment on OePPO1 (setting [4]) was 99 ± 1.2%; in the experiment with OePPO1 (setting [5]), 108.9 ± 0.92%; in the experiment on OePPO1 (5 mM metal salt, 50 mM sodium citrate buffer, 5 mM SDS, control without metal ions = 100%, listed as Zn^2+) it was 109%; in the experiment on OePPO1 (setting [6]), 107.3 ± 0.54%; in the experiment on OePPO1 (setting [7]), 15 ± 5.1%; in the experiment on OePPO1 (100 mM metal salt, 50 mM sodium citrate buffer, 5 mM SDS, control without metal ions = 100%, listed as Zn^2+), “drastically reduced”.

As for `O=C1O[C@H]([C@@H](O)CO)C(O)=C1O` [ascorbic acid], the “concentration with complete inhibitory effect” value in the experiment with apricot PPO, in the experiment on blueberry PPO and with mango PPO was “around 1 mM” in each case. For the same molecule, the IC100 in experiment [1] (pH 7.5, 5 mM SDS) was 1000 µM.

As to `O=C(O)CC(O)(CC(=O)O)C(=O)O` [citric acid], the residual activity entry in the experiment with apricot PPO is listed as “exceeding 80%”; in the experiment on mango PPO it was above 60%.

Consider `NCCc1ccc(O)c(O)c1` [dopamine], for which the kcat in experiment [3] came out at 13.98 ± 0.07 s^–1.

On to `N[C@@H](CCC(=O)N[C@@H](CS)C(=O)NCC(=O)O)C(=O)O` [glutathione, reduced, reduced glutathione], for which the “concentration with complete inhibitory effect” value in the experiment with apricot PPO, in the experiment on blueberry PPO and in the experiment on mango PPO was “around 1 mM” throughout. The midpoint of inhibition in experiment [1] (50 mM sodium phosphate buffer pH 7.5, 5 mM SDS, 25 °C, nonlinear regression), the IC50, lay at 62 ± 3 µM. In addition, the “concentration for complete suppression/inhibition of OePPO activity” value in experiment [1] (pH 7.5, 5 mM SDS) was found to be 1 mM.

On to `O=S(O)S(=O)(=O)O` [sodium metabisulfite], for which the “concentration with complete inhibitory effect” value in the experiment with apricot PPO, in the experiment on blueberry PPO and in the experiment on mango PPO was “around 1 mM” in each case. The IC100 in experiment [1] (pH 7.5, 5 mM SDS) was 1000 µM.

As to `O=C(O)CCC(=O)O` [succinic acid], the residual activity result is “exceeding 80%” with apricot PPO and above 60% in the experiment with mango PPO.

For `NCCc1ccc(O)cc1` [tyramine], the kcat in experiment [3] was 0.093 ± 0.005 s^–1.

On to `OCCc1ccc(O)cc1` [tyrosol], for which the “processed faster than tyramine” value in experiment [3] (monophenolase activity, compared with tyramine) is above 10 times.

The term residual activity denotes the activity still measured, relative to the control. Broadly, the IC50 is the point on the concentration scale where inhibition reaches its midpoint.
